Measurements published in patent publication US20220233468A1 (priority 2021, published 2022).
pEC50: −log10 of the molar value. Entries after “also recorded” stand apart in the source; their conditions may differ. Where two headings read alike, the source gives them in different places.

What was measured:
[1] = tested on: SARS-CoV-2 S pseudovirions; assay: microbe, parasite or virus in culture; assay type: cell-based; conditions: Severe acute respiratory syndrome coronavirus 2
[2] = tested on: TMPRSS2; assay: TMPRSS2 protein expression in cell lines by Western blotting; assay type: cell-based, human; mouse; conditions: a-tubulin internal control, A549, H1299, CL1-5, Beas-2B, TC-1, MLE-12 cell lines, 18 to 24 hrs treatment
Protocol: The effects of Compound A and Compound B on TMPRSS2 were investigated in A549 (human alveolar epithelial cell), H1299 (human non-small cell lung carcinoma cell), CL1-5 (human lung adenocarcinoma cell), Beas-2B (human normal bronchial epithelial cell), TC-1 (mouse lung epithelial cell) and MLE-12 (mouse lung epithelial cell) cell lines. The expression of TMPRSS2 in cells was analyzed by Western blotting, and a-tubulin was used as an internal control.

[3] = read-out: EC50, inhibition of cellular entry of SARS-CoV-2 S pseudovirions

SMILES	pEC50 [1, 3]	protein expression of TMPRSS2 [2]	pEC50 ([1]; read-out: EC50, prophylactic inhibition of cellular entry of pseudovirions, wild-type Spike)
COc1ccc(/C=C/C(=O)C(F)(CC2CCC2)C(=O)/C=C/c2ccc(OC)c(OC)c2)cc1OC [Compound A, 4-fluoro-4-cyclobutylmethyl-1,7-bis(3,4-dimethoxyphenyl)hepta-1,6-diene-3,5-dione]	~5.28	inhibit the protein expression of TMPRSS2	
COc1ccc(/C=C/C(=O)C(CC2CCC2)C(=O)/C=C/c2ccc(OC)c(OC)c2)cc1OC [Compound B, 4-(cyclobutylmethyl)-1,7-bis(3,4-dimethoxyphenyl)hepta-1,6-diene-3,5-dione]	~5.34	inhibit the protein expression of TMPRSS2; also recorded: greater TMPRSS2 inhibitory activity as compared to Compound A	~5.46
